Measurements from patent US20090281099A1, “SUBSTITUTED PYRAZINONE DERIVATIVES FOR USE AS A MEDICINE” (priority 2006, published 2009).

Key:
5HT-Transporter = biological target: T1, 5HT-Transporter (Homo sapiens, UniProt P31645); assay: Binding experiment for the 5HT-transporter ([3H]paroxetine, human platelet membranes); settings: [3H]paroxetine 0.5 nM, read-out: h-5HTT pIC50 (converted)
T1 construct: Human platelet membranes (Oceanix Biosciences Corporation, Hanover, Md., USA) were thawed; tissue Oceanix Biosciences Corporation; host or cells: human platelet membranes

hα2A receptor = biological target: T2, hα2A receptor (Homo sapiens, UniProt P08913); assay: Radioligand binding experiment for hα2A receptor ([3H]-raulwolscine, CHO cell membranes); settings: [3H]raulwolscine 1 nM, membranes of CHO cells transfected with human α2A receptor; read-out: h-α2A pIC50 (converted)
T2 construct: expressed in transfected cells
T2 sequence (P08913 1-465): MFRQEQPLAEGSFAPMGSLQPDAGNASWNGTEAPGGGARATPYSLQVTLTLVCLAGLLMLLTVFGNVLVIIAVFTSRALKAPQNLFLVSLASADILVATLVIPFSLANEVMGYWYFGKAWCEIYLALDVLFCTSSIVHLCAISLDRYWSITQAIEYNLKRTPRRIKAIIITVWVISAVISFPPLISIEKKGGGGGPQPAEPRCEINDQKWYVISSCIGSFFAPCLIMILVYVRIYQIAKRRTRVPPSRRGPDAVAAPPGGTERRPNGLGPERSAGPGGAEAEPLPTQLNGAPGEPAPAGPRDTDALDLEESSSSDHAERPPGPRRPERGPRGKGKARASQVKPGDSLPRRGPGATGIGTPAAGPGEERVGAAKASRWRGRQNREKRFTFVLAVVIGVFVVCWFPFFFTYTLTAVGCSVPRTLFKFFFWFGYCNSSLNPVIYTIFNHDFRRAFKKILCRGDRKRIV

hα2C receptor = biological target: T3, hα2C receptor (Homo sapiens, UniProt P18825); assay: Radioligand binding experiment for α2C-adrenoceptor ([3H]-raulwolscine, CHO cell membranes); settings: [3H]raulwolscine 1 nM, membranes of CHO cells transfected with human α2C receptor; read-out: h-α2C pIC50 (converted)
T3 construct: expressed in transfected cells
T3 sequence (P18825 1-462): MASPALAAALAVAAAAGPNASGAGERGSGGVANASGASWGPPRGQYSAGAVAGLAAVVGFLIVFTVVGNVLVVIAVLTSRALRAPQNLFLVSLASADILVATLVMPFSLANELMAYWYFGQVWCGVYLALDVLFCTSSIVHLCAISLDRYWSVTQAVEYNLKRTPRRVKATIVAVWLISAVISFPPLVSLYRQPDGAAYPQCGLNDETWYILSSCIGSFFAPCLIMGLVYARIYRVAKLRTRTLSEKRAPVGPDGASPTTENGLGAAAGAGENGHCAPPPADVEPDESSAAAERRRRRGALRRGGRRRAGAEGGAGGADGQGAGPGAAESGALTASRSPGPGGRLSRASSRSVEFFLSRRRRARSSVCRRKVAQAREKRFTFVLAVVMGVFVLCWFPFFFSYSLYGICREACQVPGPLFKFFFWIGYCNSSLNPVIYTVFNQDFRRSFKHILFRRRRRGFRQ

T1 sequence (P31645 whole entry): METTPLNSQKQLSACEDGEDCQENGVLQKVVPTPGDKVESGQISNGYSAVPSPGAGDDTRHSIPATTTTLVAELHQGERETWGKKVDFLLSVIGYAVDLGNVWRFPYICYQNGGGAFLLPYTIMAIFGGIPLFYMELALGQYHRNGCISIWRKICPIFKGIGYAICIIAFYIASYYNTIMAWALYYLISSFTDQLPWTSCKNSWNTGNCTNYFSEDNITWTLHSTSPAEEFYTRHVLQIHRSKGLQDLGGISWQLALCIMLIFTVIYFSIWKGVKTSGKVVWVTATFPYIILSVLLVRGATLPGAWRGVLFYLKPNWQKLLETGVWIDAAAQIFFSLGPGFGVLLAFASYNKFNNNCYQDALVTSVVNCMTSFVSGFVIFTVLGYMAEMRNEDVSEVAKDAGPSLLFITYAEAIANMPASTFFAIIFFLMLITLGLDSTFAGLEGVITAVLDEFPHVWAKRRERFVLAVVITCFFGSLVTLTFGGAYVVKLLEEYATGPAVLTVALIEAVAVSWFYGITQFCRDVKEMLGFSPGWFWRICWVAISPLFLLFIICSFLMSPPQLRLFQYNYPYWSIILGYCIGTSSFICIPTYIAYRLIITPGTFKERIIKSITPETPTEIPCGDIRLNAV

| SMILES | IC50 (5HT-Transporter) | IC50 (hα2A receptor) | IC50 (hα2C receptor) |
| --- | --- | --- | --- |
| O=c1c(NC2CCN(CCOc3ccccc3)CC2)nccn1Cc1ccc(Br)cc1 [Compound 4-3] | 794 nM | 100 nM | 20 nM |
| O=c1c(NC2CCN(CCOc3ccccc3)CC2)nccn1CCc1ccccc1 [Compound 4-4] | 6310 nM | 158 nM | 15.8 nM |
| O=C(Cn1ccnc(NC2CCN(CCOc3ccccc3)CC2)c1=O)c1ccccc1 [Compound 4-6] | 5010 nM | 39.8 nM | 10 nM |
| O=c1c(NC2CCN(CCOc3ccccc3)CC2)nccn1Cc1ccc2ccccc2c1 [Compound 4-7] | 794 nM | 79.4 nM | 20 nM |
| O=c1[nH]ccnc1NC1CCN(CCOc2ccccc2)CC1 [Compound 5-1] | > 10000 nM | 398 nM | 39.8 nM |
| CCCn1ccnc(NC2CCN(CCOc3ccccc3)CC2)c1=O [Compound 5-2] | > 10000 nM | 100 nM | 15.8 nM |
| O=c1c(NC2CCN(CCOc3ccccc3)CC2)nccn1CC1CCCCC1 [Compound 5-3] | 1000 nM | 251 nM | 25.1 nM |
| CC(=O)Cn1ccnc(NC2CCN(CCOc3ccccc3)CC2)c1=O [Compound 5-4] | > 10000 nM | 126 nM | 31.6 nM |
| CC(C)(C)C(=O)Cn1ccnc(NC2CCN(CCOc3ccccc3)CC2)c1=O [Compound 5-5] | > 10000 nM | 158 nM | 7.94 nM |
| O=c1c(NC2CCN(CCOc3ccccc3)CC2)nccn1CC1CCCCO1 (stereo not drawn) [Compound 6-1] | > 10000 nM | 501 nM | 39.8 nM |
| O=c1c(NC2CCN(CCOc3ccccc3)CC2)nccn1Cc1ccncc1 [Compound 6-2] | > 10000 nM | 398 nM | 39.8 nM |
| O=c1c(NC2CCN(CCOc3ccccc3)CC2)nccn1Cc1ccc2ccccc2n1 [Compound 6-3] | 2510 nM | 200 nM | 7.94 nM |

Second part, the compound after the results:

| IC50 (5HT-Transporter) | IC50 (hα2A receptor) | IC50 (hα2C receptor) | SMILES |
| --- | --- | --- | --- |
| 1260 nM | 158 nM | 63.1 nM | NCc1ccc(Cn2ccnc(N3CCN(CCOc4ccc(F)cc4)CC3)c2=O)cc1 [Compound 7-1] |
| > 10000 nM | 316 nM | 501 nM | CN(C)C(=O)Cn1ccnc(N2CCN(CCOc3ccc(F)cc3)CC2)c1=O [Compound 7-2] |
| 2000 nM | 398 nM | 251 nM | CC(C)(C)OC(=O)NCc1ccc(Cn2ccnc(N3CCN(CCOc4ccc(F)cc4)CC3)c2=O)cc1 [Compound 7-3] |
| 7940 nM | 631 nM | 100 nM | O=c1c(N2CCN(CCOc3ccc(F)cc3)CC2)nccn1CCN1CCCCC1 [Compound 8-1] |
| 631 nM | 100 nM | 39.8 nM | O=C1c2ccccc2C(=O)N1CCCn1ccnc(N2CCN(CCOc3ccc(F)cc3)CC2)c1=O [Compound 8-2] |
| > 10000 nM | 1260 nM | 1000 nM | COCCCn1ccnc(N2CCN(CCOc3ccc(F)cc3)CC2)c1=O [Compound 9-1] |
| 2510 nM | 200 nM | 251 nM | O=c1c(N2CCN(CCOc3ccc(F)cc3)CC2)nccn1CCOc1ccccc1 [Compound 9-2] |
| 3980 nM | 501 nM | 251 nM | O=c1c(N2CCN(CCOc3ccc(F)cc3)CC2)nccn1CCOCc1ccccc1 [Compound 9-3] |
| > 10000 nM | 100 nM | 200 nM | O=c1c(N2CCN(CCOc3ccc(F)cc3)CC2)nccn1Cc1ccccc1 [Compound 11-1] |
| 2000 nM | 251 nM | 631 nM | O=c1c(N2CCN(CCOc3ccc(F)cc3)CC2)nccn1CCCc1ccccc1 [Compound 11-2] |
| 7940 nM | 251 nM | 316 nM | O=c1c(N2CCN(CCOc3ccc(F)cc3)CC2)nccn1CC(c1ccccc1)c1ccccc1 [Compound 11-3] |
| 1580 nM | 251 nM | 200 nM | O=c1c(N2CCN(CCOc3ccc(F)cc3)CC2)nccn1C/C=C/c1ccccc1 [Compound 11-4] |
| 3980 nM | 158 nM | 158 nM | O=C(Cn1ccnc(N2CCN(CCOc3ccc(F)cc3)CC2)c1=O)c1ccccc1 [Compound 11-5] |
| 1000 nM | 316 nM | 251 nM | O=c1c(N2CCN(CCOc3ccc(F)cc3)CC2)nccn1Cc1ccc(-c2ccccc2)cc1 [Compound 11-6] |
| 2000 nM | 126 nM | 126 nM | O=c1c(N2CCN(CCOc3ccc(F)cc3)CC2)nccn1Cc1ccc2ccccc2c1 [Compound 11-8] |
| > 10000 nM | 200 nM | 251 nM | O=c1c(N2CCN(CCOc3ccc(F)cc3)CC2)nccn1Cc1ccco1 [Compound 12-1] |
| 6310 nM | 200 nM | 79.4 nM | O=c1c(N2CCN(CCOc3ccc(F)cc3)CC2)nccn1Cc1ccc(Cl)s1 [Compound 12-2] |
| > 10000 nM | 251 nM | 316 nM | Cc1nc(Cn2ccnc(N3CCN(CCOc4ccc(F)cc4)CC3)c2=O)cs1 [Compound 12-3] |
| 794 nM | 158 nM | 158 nM | COc1ccc(-c2nnc(Cn3ccnc(N4CCN(CCOc5ccc(F)cc5)CC4)c3=O)o2)cc1 [Compound 12-4] |
| > 10000 nM | 501 nM | 251 nM | O=c1[nH]ccnc1N1CCN(CCOc2ccc(F)cc2)CC1 [Compound 13-1] |
| > 10000 nM | 631 nM | 398 nM | CCCn1ccnc(N2CCN(CCOc3ccc(F)cc3)CC2)c1=O [Compound 13-2] |
| 7940 nM | 501 nM | 251 nM | O=c1c(N2CCN(CCOc3ccc(F)cc3)CC2)nccn1CC1CCCCC1 [Compound 13-3] |
| > 10000 nM | 316 nM | 200 nM | CC(C)(C)C(=O)Cn1ccnc(N2CCN(CCOc3ccc(F)cc3)CC2)c1=O [Compound 13-4] |
| > 10000 nM | 501 nM | 501 nM | C=CCn1ccnc(N2CCN(CCOc3ccc(F)cc3)CC2)c1=O [Compound 13-5] |
